In ChEMBL document CHEMBL2150933 (J Med Chem, 2012):
Active and inactive are the calls of the source. The rule behind the calls is not given here.

How the values were obtained:
SK-MEL-2 = test: Cytotoxicity against human SK-MEL-2 cells after 48 hrs by SRB assay; assay type: functional; conditions: SK-MEL-2, 48 h
SR = test: Cytotoxicity against human SR cells after 48 hrs by SRB assay; assay type: functional
[1] = Plasma concentration in CD1 mouse at 18 mg/kg, iv administered as single dose measured after 120 mins; assay type: ADME, organism-based; set-up: dose 18 mg/kg, route intravenous
OVCAR-8 = test: Cytotoxicity against human OVCAR8 cells after 48 hrs by SRB assay; assay type: functional; conditions: OVCAR-8, 48 h, read-out: pGI50 (converted)
CAKI-1 = test: Cytotoxicity against human Caki1 cells after 48 hrs by SRB assay; assay type: functional; conditions: CAKI-1, 48 h
ACHN = test: Cytotoxicity against human ACHN cells after 48 hrs by SRB assay; assay type: functional
OVCAR-5 = test: Cytotoxicity against human OVCAR5 cells after 48 hrs by SRB assay; assay type: functional; conditions: OVCAR-5, 48 h
TK-10 = test: Cytotoxicity against human TK10 cells after 48 hrs by SRB assay; assay type: functional; conditions: TK-10, 48 h
[2] = Plasma concentration in CD1 mouse at 18 mg/kg, iv administered as single dose measured after 5 mins; assay type: ADME, organism-based; set-up: dose 18 mg/kg, route intravenous
HL-60 = test: Cytotoxicity against human HL60 cells after 48 hrs by SRB assay; assay type: functional; conditions: HL-60, 48 h
Mus musculus [3] = test: Toxicity in athymic nu/nu Harlan mouse xenografted with human SK-MEL-2 cells assessed as mortality at 10 mg/kg, iv administered Q2D for 10 days relative to control; assay type: organism-based; set-up: dose 10 mg/kg, route intravenous; conditions: in vivo, 240 h
SK-MEL-5 = test: Cytotoxicity against human SK-MEL-5 cells after 48 hrs by SRB assay; assay type: functional; conditions: SK-MEL-5, 48 h
MCF7 = test: Cytotoxicity against human MCF7 cells after 48 hrs by SRB assay; assay type: functional; conditions: MCF7, 48 h
UACC-62 = test: Cytotoxicity against human UACC62 cells after 48 hrs by SRB assay; assay type: functional; conditions: UACC-62, 48 h
Mus musculus [4] = test: Toxicity in athymic nu/nu Harlan mouse xenografted with human SK-MEL-2 cells assessed as adverse reactions at 10 mg/kg, iv administered Q2D for 10 days relative to control; assay type: organism-based; set-up: dose 10 mg/kg, route intravenous; conditions: in vivo, 240 h
SN12C = test: Cytotoxicity against human SN12C cells after 48 hrs by SRB assay; assay type: functional
K562 = test: Cytotoxicity against human K562 cells after 48 hrs by SRB assay; assay type: functional; conditions: K562, 48 h
A549 = test: Cytotoxicity against human A549 cells after 48 hrs by SRB assay; assay type: functional; conditions: A549, 48 h, read-out: pGI50 (converted)
MDA-MB-435 = test: Cytotoxicity against human MDA-MB-435 cells after 48 hrs by SRB assay; assay type: functional; conditions: MDA-MB-435, 48 h
[5] = Plasma concentration in CD1 mouse at 18 mg/kg, iv administered as single dose measured after 30 mins; assay type: ADME, organism-based; set-up: dose 18 mg/kg, route intravenous
[6] = Toxicity in ip dosed CD1 mouse administered as single dose; assay type: organism-based; conditions: in vivo
Mus musculus [7] = test: Toxicity in athymic nu/nu Harlan mouse xenografted with human COLO205 cells assessed as adverse reactions at 10 mg/kg, iv administered Q2D for 10 days relative to control; assay type: organism-based, COLO 205; set-up: dose 10 mg/kg, route intravenous; conditions: in vivo, 240 h
MDA-MB-468 = test: Cytotoxicity against human MDA-MB-468 cells after 48 hrs by SRB assay; assay type: functional; conditions: MDA-MB-468, 48 h
Mus musculus [8] = test: Toxicity in iv dosed CD1 mouse administered Q2D for 8 days; assay type: organism-based; conditions: mouse, in vivo, 192 h
M14 = test: Cytotoxicity against human M14 cells after 48 hrs by SRB assay; assay type: functional; conditions: M14, 48 h
NCI-H460 = test: Cytotoxicity against human NCI-H460 cells after 48 hrs by SRB assay; assay type: functional; conditions: NCI-H460, 48 h
HCC 2998 = test: Cytotoxicity against human HCC2998 cells after 48 hrs by SRB assay; assay type: functional; conditions: HCC 2998, 48 h
Mus musculus [9] = test: Toxicity in athymic nu/nu Harlan mouse xenografted with human COLO205 cells assessed as adverse reactions at 20 mg/kg, iv administered Q3D for 10 days relative to control; assay type: organism-based, COLO 205; set-up: dose 20 mg/kg, route intravenous; conditions: in vivo, 240 h
COLO 205 = test: Antitumor activity against human COLO205 cells xenografted in athymic nu/nu Harlan mouse assessed as tumor growth inhibition at 10 mg/kg, iv administered Q2D for 10 days relative to control; assay type: functional, organism-based; set-up: dose 10 mg/kg
SNB-19 = test: Cytotoxicity against human SNB19 cells after 48 hrs by SRB assay; assay type: functional; conditions: SNB-19, 48 h
[10] = Toxicity in iv dosed CD1 mouse administered as single dose; assay type: organism-based; conditions: in vivo
Mus musculus [11] = test: Toxicity in athymic nu/nu Harlan mouse xenografted with human SK-MEL-2 cells assessed as change in body weight at 20 mg/kg, iv administered Q3D for 10 days relative to control; assay type: organism-based; set-up: dose 20 mg/kg, route intravenous; conditions: in vivo, 240 h
Mus musculus [12] = test: Toxicity in athymic nu/nu Harlan mouse xenografted with human SK-MEL-2 cells assessed as mortality at 20 mg/kg, iv administered Q3D for 10 days relative to control; assay type: organism-based; set-up: dose 20 mg/kg, route intravenous; conditions: in vivo, 240 h
T47D = test: Cytotoxicity against human T47D cells after 48 hrs by SRB assay; assay type: functional
Mus musculus [13] = test: Toxicity in athymic nu/nu Harlan mouse xenografted with human COLO205 cells assessed as mortality at 10 mg/kg, iv administered Q2D for 10 days relative to control; assay type: organism-based, COLO 205; set-up: dose 10 mg/kg, route intravenous; conditions: in vivo, 240 h
MDA-MB-231 = test: Cytotoxicity against human MDA-MB-231 cells after 48 hrs by SRB assay; assay type: functional; conditions: MDA-MB-231, 48 h
OVCAR-4 = test: Cytotoxicity against human OVCAR4 cells after 48 hrs by SRB assay; assay type: functional; conditions: OVCAR-4, 48 h
Mus musculus [14] = test: Toxicity in athymic nu/nu Harlan mouse xenografted with human SK-MEL-2 cells assessed as adverse reactions at 20 mg/kg, iv administered Q3D for 10 days relative to control; assay type: organism-based; set-up: dose 20 mg/kg, route intravenous; conditions: in vivo, 240 h

With `CO[C@@H]([C@@H]1Cc2cc3cc(O[C@H]4C[C@@H](O[C@H]5C[C@@H](O)[C@H](O)[C@@H](C)O5)[C@H](O)[C@@H](C)O4)c(C)c(O)c3c(O)c2C(=O)[C@H]1O[C@H]1C[C@@H](O[C@H]2C[C@@H](O[C@H]3C[C@H](O)[C@H](O)[C@@H](C)O3)[C@H](O)[C@@H](C)O2)[C@H](O)[C@@H](C)O1)[C@@H](O)C(C)=O` the GI50 (SK-MEL-2) was 27.5 nM, the GI50 (SR) was 12.9 nM and the concentration at 2 h [1] was < 100 nM. It also gave a GI50 (OVCAR-8) of 35.5 nM, a GI50 (CAKI-1) of 138 nM and a GI50 (ACHN) of 34.7 nM. It also gave a GI50 (OVCAR-5) of 39.8 nM, a GI50 (TK-10) of 52.5 nM and a concentration at 5 min [2] of 28000 nM. For the same compound, the GI50 (HL-60) was 24 nM, the Activity (Mus musculus [3]) was “Non-toxic” and the GI50 (SK-MEL-5; read-out: GI50) was 16 nM. It also gave a GI50 (SK-MEL-5; read-out: pGI50 (converted)) of 17 nM, a GI50 (MCF7) of 13.8 nM and a GI50 (UACC-62) of 12 nM. For the same compound, the Activity (Mus musculus [4]) was “Non-toxic”, the GI50 (SN12C) was 20.9 nM and the GI50 (K562) was 17.4 nM. The GI50 (A549) was 20.4 nM, the GI50 (MDA-MB-435) was 23.4 nM and the concentration at 0.5 h [5] was 1700 nM. The MTD [6] was 200 mg/kg, the Activity (Mus musculus [7]) was “Non-toxic” and the GI50 (MDA-MB-468) was 33.9 nM. For the same compound, the MTD (Mus musculus [8]) was 12 mg/kg, the GI50 (M14) was 45.7 nM and the GI50 (NCI-H460) was 17.8 nM. For the same compound, the GI50 (HCC 2998) was 16.2 nM, the Activity (Mus musculus [9]) was “Non-toxic” and the TGI (COLO 205) was “Active”. For the same compound, the GI50 (SNB-19) was 28.2 nM, the MTD [10] was 64 mg/kg and the Activity (Mus musculus [11]) was “Non-toxic”. For the same compound, the Activity (Mus musculus [12]) was “Non-toxic”, the GI50 (T47D) was 25.7 nM and the Activity (Mus musculus [13]) was “Non-toxic”. The GI50 (MDA-MB-231; read-out: GI50) was 50 nM, the GI50 (MDA-MB-231; read-out: pGI50 (converted)) was 47.9 nM and the GI50 (OVCAR-4) was 56.2 nM. For the same compound, the Activity (Mus musculus [14]) was “Non-toxic”.
